Measurements as given in patent US4109011A, “Insecticide carbamates of N-(polychloroallyl)-amino-phenols” (priority 1975, dated 1978).
Like-named read-outs stand apart in the source and are kept apart here.

Legend:
Tetranychus Urticae = test: Biological activity on Tetranychus urticae eggs, bean leaf discs; format: in vivo
Description: Biological Activity on Tetranychus Urticae (Acari)
Small discs of bean leaves were infested with acarus eggs and successively treated by spraying with an aqueous dispersion of a compound of this invention and Aminocarb as a comparison, at concentrations of 0.1 and 0.01%. The mortality percentage of the control, untreated discs, was zero.
(§1) To show the variation in activity from one compound to another, depending on the species used, the activities of compounds according to this invention were investigated at different concentrations, expressed as percent of active principle, on various infesting species. The mortality percentage was computed in the same way as in the preceding examples.

Culex Pipiens [1] = test: Biological activity on Culex pipiens (mosquito larvae in aqueous dispersion); format: in vivo
Description: Biological Activity on Culex Pipiens (Diptera)
Mosquito larvae of the third and fourth ages were introduced into glass pots containing an aqueous dispersion of the compounds shown at 2 ppm and 0.2 ppm.
as §1

Culex Pipiens [2] = test: as above; format: in vivo; conditions: read-out: % mort. Culex Pipiens
Tetran Urt. adults = test: Activity on Tetranychus urticae adults (Table 14); format: in vivo; conditions: 1% a.p., read-out: % mort. Tetran. Urt. adults
Description: as §1

[3] = test system: Leptinotarsa Decimlineata; test: Biological activity on Leptinotarsa decemlineata larvae, sprayed potato seedlings; format: in vivo
Description: Biological Activity on Leptinotarsa Decimlineata Coleoptera
Potato seedlings cultivated in pots were infested with 4-day old larvae and sprayed with an aqueous dispersion of the compounds according to this invention and Aminocarb as a comparison at doses of […]; respectively. The mortality percentage of the control, untreated seedlings, was zero.
as §1

Pieris Brassicae = test: Biological activity on Pieris brassicae larvae, sprayed cut cauliflower leaves; format: in vivo
Description: Biological Activity on Pieris Brassicae (Lepidoptera)
Cut leaves of cauliflower were sprayed with an aqueous dispersion of compound according to this invention at a 0.1% concentration. After drying, they were infested with 5-day old larvae. The mortality percentage of the control, untreated leaves, was zero.
as §1

Macrosiphum Euphorbiae = test: Biological activity on Macrosiphum euphorbiae (aphides), potato seedlings sprayed with aqueous dispersion; format: in vivo
Method: Biological Activity on Macrosiphum Euphorbiae (Aphides)
Potato seedlings, cultivated in pots, were infested with adult aphide females and, after a few hours, were sprayed with an aqueous dispersion of the compounds listed in Table 6. The mortality percentage was determined 24 hours after the treatment (on control non-treated seedlings, the mortality percentage was 0).
as §1

[4] = Acute toxicity on white rats, administered orally; conditions: rat, in vivo, po
[5] = test system: Leptinotarsa Decimlineata; test: Biological activity on Leptinotarsa decemlineata larvae, sprayed potato seedlings; format: in vivo; conditions: read-out: Percent of Mortality
Musca Domestica = test: Biological activity on Musca domestica, topical application to adults; format: in vivo; conditions: read-out: Percent of Mortality
Method: Biological Activity on Musca Domestica (Diptera)
Four day old adults were treated by topical application through a microsyringe with 1 mm^3 of an acetonic solution of the compounds shown in such concentrations that they received doses of 5γ/insect; 2γ/insect; 0.5γ/insect of active principle. The mortality percentage 24 hours after the treatment is reported in Table 8 (mortality of insects treated with 1 mm^3 of acetone = 0).

Meloidogyne Incognita = test: Biological activity on Meloidogyne incognita (nematocide activity, galls on tomato seedlings); format: in vivo; conditions: vs control
Method: Biological Activity on Meloidogyne Incognita (Nematoda)
A 1:1 mixture of field earth and sand infested by new-born larvae and eggs of the nematode was treated by uniformly mixing with a hydroacetone dispersion (20% by vol. of acetone) at a concentration of 0.1% and of 0.02% of the compounds under test so as to get soil samples containing 100 ppm and 20 ppm, respectively, of active principle. The soil was introduced into plastic pots and after 5 days, 5 tomato seedlings about 15 cm high were transplanted into each of them. Fourteen days after transplantation, the roots of the seedlings extracted from the soil were examined in order to determine the degree of infestation by counting the galls which had formed.
The nematocide activity is expressed in Table 13 as the percentage of infestation reduction with respect to the control (seedlings transplanted into the same soil treated with a dispersion free from active principle).

parasites = conditions: vs N-dimethyl substituted homolog; Miskus et al 1968; cited from earlier work
[6] = read-out: % mort. Culex Pipiens
[7] = read-out: % mort. Leptinot. Decemlin.
[8] = read-out: % mort. Macrosiphum Euphorbiae
[9] = 24 h, read-out: Percent of Mortality

CNC(=O)Oc1cccc(NCC=C(Cl)Cl)c1 [M 7360]
mortality at 1 % (Tetranychus Urticae; topical, read-out: % mort. Tetran. Urt. eggs): 6% | mortality at 0.2 ppm (Culex Pipiens [1]; [6]): 37% | mortality at 2 ppm (Culex Pipiens [1]; [6]): 100% | mortality at 0.02 ppm (Culex Pipiens [2]): 0% | mortality at 1 % (Tetran Urt. adults): 23% | mortality at 0.01 % [3, 7]: 0% | mortality at 0.1 % [3, 7]: 100% | mortality at 1 % [3, 7]: 100% | mortality at 1 % (Pieris Brassicae; Table 14, 1% a.p., read-out: % mort. Pieris Brassicae): 45% | mortality at 0.01 % (Macrosiphum Euphorbiae; [8]): 42% | mortality at 0.1 % (Macrosiphum Euphorbiae; [8]): 95% | mortality at 1 % (Macrosiphum Euphorbiae; [8]): 100%

CNC(=O)Oc1ccc(N(C)C)c(C)c1 [Aminocarb, reference compound]
mortality at 0.01 % (Tetranychus Urticae; foliar, 0.01%, eggs, read-out: Percent of Mortality): 0% | mortality at 0.1 % (Tetranychus Urticae; foliar, 0.1%, eggs, read-out: Percent of Mortality): 40% | mortality at 0.2 ppm (Culex Pipiens [1]; 0.2 ppm, 24 hours, read-out: Percent of Mortality): 0% | mortality at 2 ppm (Culex Pipiens [1]; 2 ppm, 24 hours, read-out: Percent of Mortality): 25% | LD50 [4]: 30 mg/kg | mortality at 0.1 % ([3]; 0.1% concentr., larvae, read-out: Percent of Mortality): 100% | mortality at 0.01 % ([5]; 0.01% concentr., larvae): 45% | mortality at 0.01 % (Macrosiphum Euphorbiae; 0.01 percent dispersion, 24 hours, read-out: Mortality Percent): 46% | mortality at 0.5 µg/insect (Musca Domestica; 0.5 γ per insect, 24 hours): 0% | mortality at 2 µg/insect (Musca Domestica; 2 γ per insect, 24 hours): 50% | mortality at 5 µg/insect (Musca Domestica; 5 γ per insect, 24 hours): 85% | Reduction of Infestation (Meloidogyne Incognita; 20 ppm in soil): 0% | Reduction of Infestation (Meloidogyne Incognita; 100 ppm in soil): 95%

CNC(=O)Oc1cc(C)c(NC)c(C)c1
relative insecticidal activity (parasites): only a bit less active than the N-dimethyl substituted homolog

CNC(=O)Oc1ccc(C)c(NCC=C(Cl)Cl)c1 [M 6430, N-methylcarbamate of 4-methyl-3-(3,3-dichloroallylamino)-phenol]
mortality at 0.2 ppm (Culex Pipiens [1]; [9]): 80% | mortality at 2 ppm (Culex Pipiens [1]; [9]): 100% | LD50 [4]: 100 mg/kg | mortality at 0.1 % ([3]; read-out: Percent of Mortality): 100% | mortality at 0.1 % (Pieris Brassicae; 0.1 percent, larvae, read-out: Percent of Mortality): 100% | mortality at 0.01 % [5]: 100% | mortality at 0.01 % (Macrosiphum Euphorbiae; 24 h, read-out: Mortality Percent): 84% | mortality at 0.5 µg/insect (Musca Domestica; 24 h): 100% | mortality at 2 µg/insect (Musca Domestica; 24 h): 100% | mortality at 5 µg/insect (Musca Domestica; 24 h): 100% | Reduction of Infestation (Meloidogyne Incognita; 20 ppm in soil): 88% | Reduction of Infestation (Meloidogyne Incognita; 100 ppm in soil): 100%
